Reference: patent EP0475231A1, “Benzodiazepines” (priority 1990, dated 1992)
Like-named read-outs stand apart in the source and are kept apart here.

Key:
HIV-1 NIT strain = experiment: anti-HIV activity test: reduction of immuno-fluorescent positive (viral antigen) cells in infected CD4+ CEM cells; type: cell-based; conditions: Human immunodeficiency virus 1, CCRF-CEM, 96 h, concentration which reduces the number of immuno-fluorescent positive cells by 50%, MOI 1, four days after infection, read-out: IC₅₀
Description: The compounds I were tested for the inhibition of HIV-cytopathic effect and the reduction of cell-associated viral antigens in an experiment run as follows:
High titer virus stocks (HIV-1 NIT strain) were grown in CD₄+ CR10 cells in RMPI-1640 media (Gibco Laboratories) supplemented with 10% fetal calf serum and 0.1 mg/ml Gentamicin. The collected media were filtered and the virus isolates were concentrated 100 fold and stored at -80°C. CD₄+ CEM cells, propagated in the same medium, were incubated for 60 minutes at 37°C with diluted stock virus at multiplicity of infection (MOI) equal to 1. Cells were washed with phosphate buffered saline and resuspended in the medium at 2 x 10⁵ cells/ml. Various quantities of the test compounds in DMSO were added. Four days after infection, the number of live cells were counted by trypan blue exclusion (Proc. Natl. Acad. Sci. 83, 1986, 1911). At the same time, aliquots of cells were fixed with acetone and stained with antibodies from AIDS patients, followed by a second staining with fluorescein-conjugated goat anti-human IgG (Cappel). Cells stained with the fluorescent antibody were counted using a fluorescence microscope and the results were expressed as percentage of the total number of cells counted (J. Med. Virol. 19, 1986, 325).
The results of this anti-HIV activity test, expressed in IC₅₀ (µM), i.e. the concentration of the test compound which reduces the number of immuno-fluorescent positive cells by 50%, are given in Table I below.

HIV-TAT = experiment: anti-HIV-TAT assay: SeAP reporter under HIV-LTR versus RSV-LTR in transfected COS cells; type: cell-based; conditions: 1-50 µM, specific inhibition of SeAP under HIV-LTR minus RSV-LTR, 48 hours after addition, average of at least three tests, grades not defined
Description: The compounds of formula I were also tested for anti-HIV-TAT activity in an assay comprising the following steps: • (a) putting both the expression of the Secreted Alkaline Phosphatase (SeAP) gene and the viral transactivator TAT gene under the control of the HIV promoter LTR responsive to the action of the HIV transactivator TAT; • (b) transfecting cultured mammalian cells with plasmids which contain the gene constructs of (a) above and cause cellular production of the transactivating factor TAT and SeAP; • (c) adding the agent to be tested, here the compounds of formula I; and determining the amount of SeAP produced, by measuring SeAP enzymatic activity, whereby inhibition of SeAP production correlates with the anti-TAT inhibition activity.
In this assay, the inhibition of SeAP positively correlates with anti-TAT activity. The greater the ability of an agent to inhibit SeAP, the greater is its anti-TAT activity.
Specifically, with respect to the results reported below, the anti-HIV-TAT assay was run as follows:
At 24 hours post transfection 1, 10, 25 and 50 µM of a test compound of formula I was added to the culture media of COS cells transfected with two plasmids, one containing the reporter gene which codes for SeAP under control of HIV-LTR, and the other containing the HIV-TAT gene also under control of HIV-LTR. The alkaline phosphatase activity of the media was assayed 48 hours after addition of test compound with a colorimetric assay using p-nitrophenylphosphate as the substrate.
The anti-HIV-TAT activities of the test compounds were determined by measuring the amount of alkaline phosphatase in the supernatant media of cultures of cells in which SeAP gene expression was under the control of the HIV LTR promoter. The specific inhibitory activities of the test compounds were calculated according to the formula: 100[(1-A/B)-(1-C/D)] [formula] where A and B are the alkaline phosphatase activites produced by HIV-LTR/SeAP in the presence and absence, respectively, of test compound, and C and D are the alkaline phosphatase activities produced by RSV-LTR/SeAP in the presence and absence, respectively, of test compound. The concentrations tested ranged from 1-50 µM. The results provided are the average of at least three tests. The test compound was added 24 hours after cells were transfected with the plasmids when SeAP specific mRNA and protein were already present and the protein was very stable. […]

HIV-1 RT = target: T1, HIV-1 RT (Human immunodeficiency virus type 1 group M subtype B, UniProt P03366); experiment: HIV-1 RT inhibition with recombinant DNA-derived enzyme, poly(rA)·oligo(dT)10 template/primer, 3H-TTP incorporation; type: biochemical
T1 construct: made in house
Description: Compounds of the present invention were also examined for their ability to inhibit HIV-1 RT using recombinant DNA-derived enzyme (S.F.J. Le Grice and F. Gruninger-Leitch, European Journal of Biochemistry 187:307-314 (1990)) in […] volume assay mixtures. Mixtures contained 50mM Tris-HCl (pH 8.0), 25mM KCl, 4mM MgCl₂, 5mM dithiothreitol (DTT), 0.05% Triton X-100, […] ³H-TTP (2Ci/mmol), 1mg poly(rA)·oligo(dT)₁₀ (20:1) as template/primer, test compound at the desired concentration, and an appropriate quantity of HIV RT, usually 0.01 to 0.1mg. The assay mixtures were incubated at 37°C for 10 minutes and the reactions were stopped by the addition of 10% trichloroacetic acid (TCA). Yeast RNA ([…] per reaction) was added and the reaction products were precipitated at 4°C for 30 minutes. TCA-precipitated material was collected by filtration and the bound radioactivity determined by counting using a liquid scintillation counter. The concentration of compound required to inhibit the activity of HIV-RT by fifty percent (IC₅₀) was determined from a multiple dose-effect analysis program (J. Chou and I. C. Chou, Dose Effect Analysis with Microcomputers, Elsevier Sciences Publishers, Amsterdam 1987).

[1] = recombinant HIV-1 RT, 37°C, 10 minutes, read-out: IC₅₀

| Compound | IC50 (HIV-1 NIT strain) [µM] | Anti-HIV-TAT activity (HIV-TAT) | IC50 (HIV-1 RT) [µM] | IC50 (HIV-1 RT; [1]) [µM] |
| --- | --- | --- | --- | --- |
| NNC1=Nc2ccc(Cl)cc2C(c2ccc[nH]2)=NC1 [NHNH₂, 7-chloro-2-hydrazino-5-(1H-pyrrol-2-yl)-3H-1,4-benzodiazepine] | 1 | High | – | – |
| COC1=Nc2ccc(Cl)cc2C(c2ccc[nH]2)=NC1 [OCH₃, 7-chloro-2-methoxy-5-(1H-pyrrol-2-yl)-3H-1,4-benzodiazepine] | 1 | Medium | 1.5 | – |
| Clc1ccc2c(c1)C(c1ccc[nH]1)=NCC(Nc1ccccc1)=N2 [NHPh, 7-chloro-N-phenyl-5-(1H-pyrrol-2-yl)-3H-1,4-benzodiazepin-2-amine] | – | – | 15.8 | – |
| Clc1ccc2c(c1)C(c1ccc[nH]1)=NCC(N1CCCCC1)=N2 [1-piperidinyl, 7-chloro-2-(1-piperidinyl)-5-(1H-pyrrol-2-yl)-3H-1,4-benzodiazepine] | 2 | Medium/High | – | 10.4 |
| C=CCNC1=Nc2ccc(Cl)cc2C(c2ccc[nH]2)=NC1 [NHCH₂CH=CH₂, 7-chloro-N-(2-propenyl)-5-(1H-pyrrol-2-yl)-3H-1,4-benzodiazepin-2-amine] | – | Low | 4.2 | – |
| NCCNC1=Nc2ccc(Cl)cc2C(c2ccc[nH]2)=NC1 [NHCH₂CH₂NH₂, N-[7-chloro-5-(1H-pyrrol-2-yl)-3H-1,4-benzodiazepin-2-yl]-1,2-ethanediamine] | – | Medium | – | – |
| C#CCNC1=Nc2ccc(Cl)cc2C(c2ccc[nH]2)=NC1 [NHCH₂C≡CH, 7-chloro-N-(2-propynyl)-5-(1H-pyrrol-2-yl)-3H-1,4-benzodiazepin-2-amine] | – | – | 2 | – |
| Clc1ccc2c(c1)C(c1ccc[nH]1)=NCC(NC1CC1)=N2 [NH(cyclopropyl), 7-chloro-N-cyclopropyl-5-(1H-pyrrol-2-yl)-3H-1,4-benzodiazepin-2-amine] | 0.8 | Medium | 5.4 | – |
| OC1CCN(C2=Nc3ccc(Cl)cc3C(c3ccc[nH]3)=NC2)C1 (racemic) [3-OH-1-pyrrolidinyl, rac-1-[7-chloro-5-(1H-pyrrol-2-yl)-3H-1,4-benzodiazepin-2-yl]-3-pyrrolidinol] | 1 to 5 | High | – | 6.4 |
| CN(C)C1=Nc2ccc(Cl)cc2C(c2ccc[nH]2)=NC1 [N(CH₃)₂, 7-chloro-N,N-dimethyl-5-(1H-pyrrol-2-yl)-3H-1,4-benzodiazepin-2-amine] | 1 to 3 | Medium/High | 7.3 | – |
| CSC1=Nc2ccc(Cl)cc2C(c2ccc[nH]2)=NC1 [SCH₃, 7-chloro-2-(methylthio)-5-(1H-pyrrol-2-yl)-3H-1,4-benzodiazepine] | 5 to 10 | Low/Medium | 1.6 | – |
| OCCNC1=Nc2ccc(Cl)cc2C(c2ccc[nH]2)=NC1 [NHCH₂CH₂OH, 7-chloro-N-(2-hydroxyethyl)-5-(1H-pyrrol-2-yl)-3H-1,4-benzodiazepin-2-amine] | 2 to 5 | Medium | 8.9 | – |
| Clc1ccc2c(c1)C(c1ccc[nH]1)=NCC(N1CCCC1)=N2 [1-pyrrolidinyl, 7-chloro-5-(1H-pyrrol-2-yl)-2-(1-pyrrolidinyl)-3H-1,4-benzodiazepine] | 0.8 to 5 | Medium/High | – | 10.2 |
| CCN(CC)C1=Nc2ccc(Cl)cc2C(c2ccc[nH]2)=NC1 [N(CH₂CH₃)₂, 7-chloro-N,N-diethyl-5-(1H-pyrrol-2-yl)-3H-1,4-benzodiazepin-2-amine] | – | Low/Medium | – | – |
| Clc1ccc2c(c1)C(c1ccc[nH]1)=NCC(NCc1ccccc1)=N2 [NHCH₂Ph, 7-chloro-N-(phenylmethyl)-5-(1H-pyrrol-2-yl)-3H-1,4-benzodiazepin-2-amine] | 3 | Low/Medium | 2.6 | – |
| Clc1ccc2c(c1)C(c1ccc[nH]1)=NCC(N1CCNCC1)=N2 [1-piperazinyl, 7-chloro-2-(1-piperazinyl)-5-(1H-pyrrol-2-yl)-3H-1,4-benzodiazepine] | – | Low | – | 18 |
| COC(CNC1=Nc2ccc(Cl)cc2C(c2ccc[nH]2)=NC1)OC [NHCH₂CH(OCH₃)₂, 7-chloro-N-(2,2-dimethoxyethyl)-5-(1H-pyrrol-2-yl)-3H-1,4-benzodiazepin-2-amine] | 1 to 5 | Medium/High | – | – |
